Assay results reported in the supplement of paper PMC10307832.

Columns and labels:
Assay in all cases: relative viability (nuclei count vs DMSO), 5 days (fraction); higher = more cells survive
[1] = compound: CS(=O)(=O)c1ccc(-c2cnc(N)c(C(=O)Nc3ccccc3)n2)cc1 [VE-821] + Cc1nc(NC(=O)N2CCC[C@H]2C(N)=O)sc1-c1ccnc(C(C)(C)C(F)(F)F)c1 [Alpelisib] (partner 2 µM)
How it was run: (§1)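 For relative viability, nuclei counts in treated wells were divided by those in vehicle wells. Lung cancer cell lines had been pin-tool dosed in 1536-well plates the day after seeding and cultured for 5 days, then fixed and stained in one step (final 0.05% Triton X-100, 1% formaldehyde, 1 ug/ml Hoechst) and imaged at 4×. Doses were one drug alone or a fixed anchor-drug dose plus five library-drug doses (not always all listed) in √10 steps, and values are duplicate-plate medians.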

[2] = compound: CS(=O)(=O)c1ccc(-c2cnc(N)c(C(=O)Nc3ccccc3)n2)cc1 [VE-821] + Nc1nc2[nH]cc(CCc3ccc(C(=O)N[C@@H](CCC(=O)O)C(=O)O)cc3)c2c(=O)[nH]1 [Pemetrexed] (partner 0.2 µM)
How it was run: as §1

[3] = compound: CS(=O)(=O)c1ccc(-c2cnc(N)c(C(=O)Nc3ccccc3)n2)cc1 [VE-821] + CC(=O)Nc1cccc(-n2c(=O)n(C3CC3)c(=O)c3c(Nc4ccc(I)cc4F)n(C)c(=O)c(C)c32)c1 [Trametinib] (partner 0.02 µM)
How it was run: as §1

[4] = compound: N#CC[C@H](C1CCCC1)n1cc(-c2ncnc3[nH]ccc23)cn1 [Ruxolitinib] + Nc1ncn([C@H]2C[C@H](O)[C@@H](CO)O2)c(=O)n1 [Decitabine] (partner 2 µM)
How it was run: as §1

UMC-11
relative viability ([1]; first compound 0.08 µM): 1.23
relative viability ([1]; first compound 0.253 µM): 0.946
relative viability ([1]; first compound 0.8 µM): 1.03
relative viability ([1]; first compound 2.53 µM): 0.935
relative viability ([1]; first compound 8 µM): 0.437
relative viability ([2]; first compound 0.08 µM): 0.818
relative viability ([2]; first compound 0.253 µM): 0.718
relative viability ([2]; first compound 0.8 µM): 0.728
relative viability ([2]; first compound 2.53 µM): 0.513
relative viability ([2]; first compound 8 µM): 0.266
relative viability ([3]; first compound 0.08 µM): 0.738
relative viability ([3]; first compound 0.253 µM): 0.596
relative viability ([3]; first compound 0.8 µM): 0.516
relative viability ([3]; first compound 2.53 µM): 0.798
relative viability ([3]; first compound 8 µM): 0.38
relative viability ([4]; first compound 0.08 µM): 0.745
relative viability ([4]; first compound 0.253 µM): 0.62
relative viability ([4]; first compound 0.8 µM): 0.797
relative viability ([4]; first compound 2.53 µM): 0.433
relative viability ([4]; first compound 8 µM): 0.627
